Experimental data: ChEMBL document CHEMBL3351889, “Identification of a novel 2-pyridyl-benzensulfonamide derivative, RQ-00203078, as a selective and orally active TRPM8 antagonist” (Bioorg Med Chem Lett, 2014)
In brackets after ≈: the same amount, converted by molar mass.

How the values were obtained:
[1] = molecular target: Transient receptor potential cation channel subfamily M member 8 (Homo sapiens, UniProt Q7Z2W7); assay: Antagonist activity at human TRPM8 expressed in HEK293 cells assessed as inhibition of menthol induced Ca2+ influx; format: cell-based
[2] = Intrinsic clearance in human liver microsomes; format: ADME; conditions: read-out: CLH
Rattus norvegicus = assay: Antiallodynic activity in icilin-induced wet-dog shake rat model compound administered po 1 hr prior to icilin challenge measured over 30 mins; format: functional
[3] = molecular target: Transient receptor potential cation channel subfamily M member 8 (Rattus norvegicus, UniProt Q8R455); assay: Antagonist activity at rat TRPM8 assessed as inhibition of menthol induced Ca2+ influx by cell-based assay
[4] = Intrinsic clearance in rat liver microsomes; format: ADME; conditions: read-out: CLH
[5] = Fraction unbound in rat plasma; format: ADME, cell-free
[6] = molecular target: Transient receptor potential cation channel subfamily A member 1 (Homo sapiens, UniProt O75762); assay: Antagonist activity at human TRPA1 expressed in HEK293 cells assessed as inhibition of AITC-induced Ca2+ influx; format: cell-based
[7] = molecular target: Transient receptor potential cation channel subfamily A member 1 (Rattus norvegicus, UniProt Q6RI86); assay: Antagonist activity at rat TRPA1 expressed in HEK293 cells assessed as inhibition of AITC-induced Ca2+ influx; format: cell-based
[8] = molecular target: Transient receptor potential cation channel subfamily V member 4 (Homo sapiens, UniProt Q9HBA0); assay: Antagonist activity at human TRPV4 expressed in HEK293 cells assessed as inhibition of hypotonic solution-induced Ca2+ influx; format: cell-based
[9] = molecular target: Transient receptor potential cation channel subfamily V member 1 (Homo sapiens, UniProt Q8NER1); assay: Antagonist activity at human TRPV1 expressed in HEK293 cells assessed as inhibition of capsaicin-induced Ca2+ influx; format: cell-based
[10] = molecular target: Transient receptor potential cation channel subfamily V member 1 (Rattus norvegicus, UniProt O35433); assay: Antagonist activity at rat TRPV1 expressed in HEK293 cells assessed as inhibition of capsaicin-induced Ca2+ influx; format: cell-based
[11] = Cmax in rat at 3 mg/kg, po; format: ADME, organism-based; set-up: dose 3 mg/kg, route oral; conditions: in vivo
[12] = Oral bioavailability in rat at 3 mg/kg; format: ADME, organism-based; conditions: in vivo
[13] = Equilibrium solubility of the compound; format: physicochemical

Sequence of Transient receptor potential cation channel subfamily M member 8 (Homo sapiens, UniProt Q7Z2W7) (Q7Z2W7 whole entry): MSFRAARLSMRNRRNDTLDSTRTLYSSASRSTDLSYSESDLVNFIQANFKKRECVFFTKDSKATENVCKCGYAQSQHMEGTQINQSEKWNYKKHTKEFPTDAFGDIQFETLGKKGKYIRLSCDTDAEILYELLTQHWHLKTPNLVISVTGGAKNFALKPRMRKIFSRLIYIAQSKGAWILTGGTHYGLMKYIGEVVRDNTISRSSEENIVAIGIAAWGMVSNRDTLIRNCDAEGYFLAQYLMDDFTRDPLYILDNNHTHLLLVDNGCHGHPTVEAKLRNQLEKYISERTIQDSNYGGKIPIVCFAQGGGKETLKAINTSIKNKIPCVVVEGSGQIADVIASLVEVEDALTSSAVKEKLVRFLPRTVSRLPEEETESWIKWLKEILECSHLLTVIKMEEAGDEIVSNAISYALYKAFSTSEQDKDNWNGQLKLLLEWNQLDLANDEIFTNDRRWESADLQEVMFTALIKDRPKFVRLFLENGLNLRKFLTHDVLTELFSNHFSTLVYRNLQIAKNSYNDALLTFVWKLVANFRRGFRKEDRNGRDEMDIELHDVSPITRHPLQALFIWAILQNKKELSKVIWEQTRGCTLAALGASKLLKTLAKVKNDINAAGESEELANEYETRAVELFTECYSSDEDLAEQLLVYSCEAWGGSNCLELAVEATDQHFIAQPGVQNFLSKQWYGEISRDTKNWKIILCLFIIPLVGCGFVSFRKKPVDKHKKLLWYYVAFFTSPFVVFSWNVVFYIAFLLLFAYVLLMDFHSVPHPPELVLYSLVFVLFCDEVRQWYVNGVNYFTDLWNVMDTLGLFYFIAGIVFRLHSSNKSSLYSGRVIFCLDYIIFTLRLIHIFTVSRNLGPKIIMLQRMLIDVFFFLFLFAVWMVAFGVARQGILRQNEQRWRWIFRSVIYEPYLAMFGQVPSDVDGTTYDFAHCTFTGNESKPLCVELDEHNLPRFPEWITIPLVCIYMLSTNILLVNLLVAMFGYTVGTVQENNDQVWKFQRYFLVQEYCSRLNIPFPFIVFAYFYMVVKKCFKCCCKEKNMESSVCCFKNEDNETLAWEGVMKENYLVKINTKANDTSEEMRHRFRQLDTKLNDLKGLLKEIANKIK
Sequence of Transient receptor potential cation channel subfamily M member 8 (Rattus norvegicus, UniProt Q8R455) (Q8R455 whole entry): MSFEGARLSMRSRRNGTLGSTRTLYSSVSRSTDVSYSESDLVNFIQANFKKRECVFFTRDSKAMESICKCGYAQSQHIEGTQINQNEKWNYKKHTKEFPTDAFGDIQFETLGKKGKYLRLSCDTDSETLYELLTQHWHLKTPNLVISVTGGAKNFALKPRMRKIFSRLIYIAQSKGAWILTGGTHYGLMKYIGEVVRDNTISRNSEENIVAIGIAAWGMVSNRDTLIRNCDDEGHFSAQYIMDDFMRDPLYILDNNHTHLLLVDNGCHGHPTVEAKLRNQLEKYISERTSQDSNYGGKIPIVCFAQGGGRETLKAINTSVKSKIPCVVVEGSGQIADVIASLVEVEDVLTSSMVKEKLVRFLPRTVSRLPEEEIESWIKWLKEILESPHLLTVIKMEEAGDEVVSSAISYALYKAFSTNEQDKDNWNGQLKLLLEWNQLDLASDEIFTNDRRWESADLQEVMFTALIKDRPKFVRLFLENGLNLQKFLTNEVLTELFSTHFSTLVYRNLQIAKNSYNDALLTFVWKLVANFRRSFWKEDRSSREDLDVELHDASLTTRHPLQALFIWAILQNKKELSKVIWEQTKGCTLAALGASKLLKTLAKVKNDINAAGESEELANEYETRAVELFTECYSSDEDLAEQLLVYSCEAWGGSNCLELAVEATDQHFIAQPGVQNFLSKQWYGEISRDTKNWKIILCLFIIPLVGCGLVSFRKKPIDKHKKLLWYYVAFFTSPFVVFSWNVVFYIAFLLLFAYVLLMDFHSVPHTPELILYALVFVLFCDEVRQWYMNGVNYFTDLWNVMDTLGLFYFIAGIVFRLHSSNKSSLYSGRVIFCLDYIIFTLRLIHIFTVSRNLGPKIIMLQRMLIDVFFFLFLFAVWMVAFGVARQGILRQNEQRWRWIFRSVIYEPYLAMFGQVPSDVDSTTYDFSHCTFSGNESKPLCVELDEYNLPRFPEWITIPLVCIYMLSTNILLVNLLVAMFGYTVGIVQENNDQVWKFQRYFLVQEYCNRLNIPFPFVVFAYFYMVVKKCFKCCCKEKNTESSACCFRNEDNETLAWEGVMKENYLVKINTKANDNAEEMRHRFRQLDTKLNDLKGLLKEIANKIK
Sequence of Transient receptor potential cation channel subfamily A member 1 (Rattus norvegicus, UniProt Q6RI86) (Q6RI86 whole entry): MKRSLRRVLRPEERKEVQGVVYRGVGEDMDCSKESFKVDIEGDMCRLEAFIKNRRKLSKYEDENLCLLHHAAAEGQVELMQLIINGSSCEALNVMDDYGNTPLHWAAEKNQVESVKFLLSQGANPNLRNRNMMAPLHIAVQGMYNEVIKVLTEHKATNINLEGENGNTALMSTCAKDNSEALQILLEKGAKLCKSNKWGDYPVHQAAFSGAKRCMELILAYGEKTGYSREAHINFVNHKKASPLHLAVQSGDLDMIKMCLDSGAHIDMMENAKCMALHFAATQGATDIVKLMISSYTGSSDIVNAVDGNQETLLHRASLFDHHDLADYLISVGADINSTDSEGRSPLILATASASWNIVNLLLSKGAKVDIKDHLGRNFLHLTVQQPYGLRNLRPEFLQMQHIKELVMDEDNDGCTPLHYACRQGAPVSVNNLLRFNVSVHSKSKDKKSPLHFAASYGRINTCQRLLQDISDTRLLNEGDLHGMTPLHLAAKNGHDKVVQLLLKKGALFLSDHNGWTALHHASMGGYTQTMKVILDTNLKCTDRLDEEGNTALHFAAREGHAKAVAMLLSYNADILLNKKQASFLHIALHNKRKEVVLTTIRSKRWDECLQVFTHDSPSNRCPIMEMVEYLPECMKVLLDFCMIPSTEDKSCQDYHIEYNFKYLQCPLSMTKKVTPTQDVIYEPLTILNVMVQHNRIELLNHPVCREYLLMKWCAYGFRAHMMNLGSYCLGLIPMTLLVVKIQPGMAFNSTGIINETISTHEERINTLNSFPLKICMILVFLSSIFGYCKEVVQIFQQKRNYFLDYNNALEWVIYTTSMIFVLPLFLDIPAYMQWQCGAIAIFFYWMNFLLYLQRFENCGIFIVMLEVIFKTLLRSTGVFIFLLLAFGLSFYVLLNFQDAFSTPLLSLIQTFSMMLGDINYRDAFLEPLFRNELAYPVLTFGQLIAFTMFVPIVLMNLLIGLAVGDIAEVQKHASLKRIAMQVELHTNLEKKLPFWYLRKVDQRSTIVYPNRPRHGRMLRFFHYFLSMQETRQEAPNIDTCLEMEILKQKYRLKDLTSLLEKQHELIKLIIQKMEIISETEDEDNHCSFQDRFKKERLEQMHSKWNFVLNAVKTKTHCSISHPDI
Sequence of Transient receptor potential cation channel subfamily V member 1 (Homo sapiens, UniProt Q8NER1) (Q8NER1 whole entry, looked up): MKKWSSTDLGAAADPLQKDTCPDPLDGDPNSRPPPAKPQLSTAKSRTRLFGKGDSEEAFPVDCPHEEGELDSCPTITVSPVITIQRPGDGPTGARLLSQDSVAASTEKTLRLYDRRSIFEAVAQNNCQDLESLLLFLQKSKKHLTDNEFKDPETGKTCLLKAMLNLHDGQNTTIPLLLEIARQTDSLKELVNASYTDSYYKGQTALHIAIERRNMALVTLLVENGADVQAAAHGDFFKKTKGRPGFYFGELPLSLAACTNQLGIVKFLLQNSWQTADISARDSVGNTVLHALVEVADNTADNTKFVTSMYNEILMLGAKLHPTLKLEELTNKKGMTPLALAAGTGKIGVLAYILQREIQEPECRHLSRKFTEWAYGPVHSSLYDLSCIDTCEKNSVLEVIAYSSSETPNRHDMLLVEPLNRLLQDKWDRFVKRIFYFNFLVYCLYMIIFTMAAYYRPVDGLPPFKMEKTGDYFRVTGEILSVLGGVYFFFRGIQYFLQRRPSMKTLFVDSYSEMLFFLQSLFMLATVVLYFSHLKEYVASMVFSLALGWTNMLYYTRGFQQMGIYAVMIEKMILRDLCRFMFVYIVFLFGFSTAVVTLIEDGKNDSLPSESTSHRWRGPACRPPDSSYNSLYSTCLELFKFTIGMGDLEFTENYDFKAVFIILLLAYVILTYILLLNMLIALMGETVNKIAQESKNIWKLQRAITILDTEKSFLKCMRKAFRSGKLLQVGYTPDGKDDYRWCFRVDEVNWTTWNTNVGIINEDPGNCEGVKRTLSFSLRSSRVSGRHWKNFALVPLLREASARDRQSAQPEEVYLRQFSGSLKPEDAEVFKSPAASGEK
Sequence of Transient receptor potential cation channel subfamily V member 1 (Rattus norvegicus, UniProt O35433) (O35433 whole entry, looked up): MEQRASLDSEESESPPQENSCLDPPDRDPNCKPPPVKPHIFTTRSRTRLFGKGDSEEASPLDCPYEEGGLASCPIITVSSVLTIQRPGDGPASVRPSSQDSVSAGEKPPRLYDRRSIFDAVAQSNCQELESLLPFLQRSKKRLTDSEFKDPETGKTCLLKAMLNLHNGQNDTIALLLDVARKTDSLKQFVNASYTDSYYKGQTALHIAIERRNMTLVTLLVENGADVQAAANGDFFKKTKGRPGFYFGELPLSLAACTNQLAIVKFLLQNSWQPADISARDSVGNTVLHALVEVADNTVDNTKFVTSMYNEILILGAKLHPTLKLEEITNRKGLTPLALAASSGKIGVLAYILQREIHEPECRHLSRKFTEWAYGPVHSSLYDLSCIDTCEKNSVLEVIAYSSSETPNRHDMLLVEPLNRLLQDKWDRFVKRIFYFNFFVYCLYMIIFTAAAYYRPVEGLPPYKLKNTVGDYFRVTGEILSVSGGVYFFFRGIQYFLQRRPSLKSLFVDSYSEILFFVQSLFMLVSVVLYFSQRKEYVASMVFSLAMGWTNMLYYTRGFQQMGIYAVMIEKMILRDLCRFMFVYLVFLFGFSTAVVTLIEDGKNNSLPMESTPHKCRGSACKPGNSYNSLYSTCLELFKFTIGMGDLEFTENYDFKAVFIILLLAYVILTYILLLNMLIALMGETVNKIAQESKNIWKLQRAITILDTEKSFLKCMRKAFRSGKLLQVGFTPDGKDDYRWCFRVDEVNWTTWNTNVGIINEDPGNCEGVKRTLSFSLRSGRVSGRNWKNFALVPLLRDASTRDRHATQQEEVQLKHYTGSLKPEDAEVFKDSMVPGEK

| SMILES | IC50 [1] [nM] | CLint scaled [2] [mL/min/kg] | other results |
| --- | --- | --- | --- |
| O=C(O)c1ccc(S(=O)(=O)N(Cc2ccccc2)c2ncccc2Cl)cc1 | 9860 | – | – |
| O=C(O)c1ccc(S(=O)(=O)N(CCN2CCOCC2)c2ncc(C(F)(F)F)cc2Cl)cc1 | 3720 | < 7 | – |
| Cc1c(N(Cc2ccc(C(F)(F)F)c(F)c2)S(=O)(=O)c2ccc(C(=O)O)cc2)sc2ccccc12 | 6.2 | 8.5 | – |
| O=C(O)c1ccc(S(=O)(=O)N(Cc2ccccc2OC(F)(F)F)c2ncc(C(F)(F)F)cc2Cl)cc1 | 96 | < 7 | – |
| CN(C)C(=O)c1ccc(S(=O)(=O)N(Cc2ccccc2)c2ncc(C(F)(F)F)cc2Cl)cc1 | 67 | > 168 | solubility thermodynamic [13]: 37 µM (≈ 18.4 µg/mL) |
| O=C(O)c1ccc(S(=O)(=O)N(Cc2ccc(C(F)(F)F)cc2)c2ncc(Cl)cc2Cl)cc1 | 11 | < 7 | ED50 (Rattus norvegicus): 1.3 mg/kg; IC50 [3]: 9 nM; CLint scaled [4]: < 10.4 mL/min/kg; fraction unbound [5]: 0.011 |
| O=C(O)c1ccc(S(=O)(=O)N(CCCc2ccccc2)c2ncc(C(F)(F)F)cc2Cl)cc1 | 49 | 81 | – |

Further lines, with some results ahead:

| IC50 [1] [nM] | CLint scaled [2] [mL/min/kg] | SMILES | other results |
| --- | --- | --- | --- |
| 8.3 | < 7 | O=C(O)c1ccc(S(=O)(=O)N(Cc2ccc(OC(F)(F)F)cc2)c2ncc(C(F)(F)F)cc2Cl)cc1 | ED50 (Rattus norvegicus): 0.65 mg/kg; IC50 [3]: 5.8 nM; CLint scaled [4]: < 10.4 mL/min/kg; fraction unbound [5]: 0.0031; IC50 [6]: > 10000 nM; IC50 [7]: > 10000 nM; IC50 [8]: > 3000 nM; IC50 [9]: > 10000 nM; IC50 [10]: > 3000 nM; Cmax [11]: 2300 ng/mL; bioavailability [12]: 86% |
| 41 | < 7 | O=C(O)c1ccc(S(=O)(=O)N(Cc2cccc(C(F)(F)F)c2)c2ncc(C(F)(F)F)cc2Cl)cc1 | – |
| 736 | – | Cc1cc(C(F)(F)F)cnc1N(Cc1ccccc1)S(=O)(=O)c1ccc(C(=O)O)cc1 | – |
| 762 | – | O=C(O)c1ccc(S(=O)(=O)N(CCc2ccccc2)c2ncc(C(F)(F)F)cc2Cl)cc1 | – |
| 61 | < 7 | O=C(O)c1ccc(S(=O)(=O)N(Cc2ccccc2)c2ncc(C(F)(F)F)cc2Cl)cc1 | solubility thermodynamic [13]: 185 µM (≈ 87.1 µg/mL) |
| 42 | > 168 | O=S(=O)(c1ccc(CO)cc1)N(Cc1ccccc1)c1ncc(C(F)(F)F)cc1Cl | solubility thermodynamic [13]: 35 µM (≈ 16 µg/mL) |
| 2470 | – | N#Cc1cc(C(F)(F)F)cnc1N(Cc1ccccc1)S(=O)(=O)c1ccc(C(=O)O)cc1 | – |
